In US11525106B2, “Tetraacetyldiamine and triacetyldiamine derivatives useful as bleach activators” (DOW GLOBAL TECHNOLOGIES LLC, priority 2018, dated 2022):

Columns and labels:
[1] = perhydrolytic degradation in the presence of sodium perborate (10 equiv.), followed by HPLC; format: physicochemical; conditions: sodium perborate/persalts 10 equiv.
Experimental: (§1) To study the hydrolytic degradation, 1 and 2 were dissolved in Tris buffer (pH 8.0, 0.1 M):acetonitrile (can) mixture (3:1, v/v) at 50 μg/mL. The perhydrolytic degradation was evaluated at similar conditions in the presence of sodium perborate (10 equiv.). Commercially available bleach activator, tetraacetylethylenediamine (TAED), was used as a control. The mixture was incubated at room temperature (20° C.) for 20 days. At different time intervals, an aliquot of the solution was taken out and analyzed by HPLC. The concentration of 1 and 2 was quantified by UV-vis absorption at Δmax=218 nm through standard curve. For the bleaching test, 1, 2, TAED, and other control molecules (20 mg) were treated with commercially available food dyes (100× dilution, 1 mL) and hydrogen peroxide (H2O2, 30%, 1 mL). The mixtures were incubated at room temperature (20° C.) and checked at different time intervals to monitor the bleaching of the dyes.

[2] = hydrolytic degradation in buffer, followed by HPLC; format: physicochemical; conditions: pH 9.0
[3] = hydrolytic degradation in buffer, followed by HPLC; format: physicochemical; conditions: for kH (hydrolysis rate constant) / half-life at 50 μg/mL: Tris buffer pH 8.0 (0.1 M):acetonitrile 3:1, 50 μg/mL, 20° C.; for half-life at 50 μg/mL: Tris buffer:acetonitrile (3:1, v/v), read-out: t1/2,H (hydrolysis half-life) (converted); for half-life relative to half-life of TAED: pH 8.0; for hydrolytic degradation compared with TAED: pH 8.0, FIG. 1A
Experimental: as §1

[4] = bleaching test with food dye and hydrogen peroxide; conditions: FIG. 2; for bleaching activation effect: food dye (blue) with H2O2, room temperature; for time after which the blue color was bleached: food dye in Tris buffer pH 8.0 with H2O2 (30%) 1:1, 10 mg compound per mL
Experimental: as §1
The compounds of the invention were subjected to a bleaching test. The food dye was purchased from Adams Extract, and diluted 500 times with Tris buffer (pH 8.0, 0.1 M) before use. The diluted food dye was mixed with H2O2 (30%) in 1:1 ratio (v/v). For every 10 mg of TAED/TA(Me)ED/TriA(Me)ED, 1 mL of food dye/H2O2 mixture was added. The widely used bleach activator TAED actively reacted with H2O2, and the blue color disappeared after about 24 hours.

[5] = solubility in aqueous environment; format: physicochemical; conditions: without organic solvent

| perhydrolysis rate, comparison among TAED, 1 and 2 [1] | half-life relative to half-life of TAED [2] [times longer] | kH (hydrolysis rate constant) [3] [h⁻¹] | half-life at 50 μg/mL [3] [h] | hydrolysis compared to TAED ([3]; basic pH) | half-life relative to half-life of TAED [3] [times longer] | hydrolytic degradation compared with TAED [3] | hydrolysis compared to TAED ([3]; pH values between about 5 and 9) | solubility in water [5] | SMILES | bleaching activation effect [4] | time after which the blue color was bleached [4] |
| --- | --- | --- | --- | --- | --- | --- | --- | --- | --- | --- | --- |
| comparable | 5.8 | 0.0015 | 462 | even slower hydrolysis | 5.7 | slower degradation | – | – | CC(=O)NC(C)CN(C(C)=O)C(C)=O (stereo not drawn) [Compound 2, N-(2-acetamidopropyl)-N-acetylacetamide] | much slower bleaching action | 24 h |
| – | – | – | – | – | – | – | – | – | CC(=O)NCCNC(C)=O [DAED, diacetylethylenediamine, reference compound] | did not exhibit any bleaching activation effect | – |
| comparable | 2.6 | 0.0038 | 181 | – | 1.5 | slower degradation | slower hydrolysis | – | CC(=O)N(CC(C)N(C(C)=O)C(C)=O)C(C)=O (stereo not drawn) [Compound 1, N,N′-(propane-1,2-diyl)bis(N-acetylacetamide)] | – | 24 h |
| comparable | – | 0.0091 | 76 | – | – | – | – | cannot be easily solubilized in water | CC(=O)N(CCN(C(C)=O)C(C)=O)C(C)=O [TAED, tetraacetylethylenediamine, reference compound] | – | about 24 hours |
| – | – | – | – | – | – | – | – | – | CC(=O)NCC(C)NC(C)=O (stereo not drawn) [Compound 3, N,N′-(propane-1,2-diyl)diacetamide, reference compound] | did not exhibit any bleaching activation effect | – |
